# Results published in patent publication EP0771196B1, “EXCITATORY AMINO ACID RECEPTOR ANTAGONISTS” (ELI LILLY AND COMPANY, priority 1994, dated 1996).
# Marks after values point to notes of the source that are not given here.
# Test system: metabotropic glutamate receptors
# Assay: Displacement of 1S,3R-ACPD-sensitive [3H]glutamate binding to rat brain cell membranes
# Conditions: crude membranes of rat forebrain; 10 µM compound
# Description: The binding of [^3H]glutamate was conducted with crude membranes of rat forebrain as described by Schoepp and True. Schoepp and True, Neuroscience Lett., 145, 100-104 (1992) and True and Schoepp, Society for Neuroscience Abstracts, 19, 470 (1993). IC50 values for the inhibition of [^3H]glutamate binding, or the percent displacement of [^3H]glutamate binding at a 10 µM concentration, of the formula I compound, is shown in Table II.
row,Compound,ACPD-Sensitive [^3H]Glutamate Binding % Displacement at 10 µM
1,"NC(Cc1ccccc1)(C(=O)O)C1CC1C(=O)O (stereo not drawn) [Example 1, 2SR- and 2RS-2-amino-2-(1SR,2SR-2-carboxycyclopropan-1-yl)-3-phenylpropanoic acid]",(61%)
2,"NC(Cc1ccc(C(=O)O)cc1)(C(=O)O)C1CC1C(=O)O (stereo not drawn) [Example 42, 2SR- and 2RS-2-amino-2-(1SR,2SR-2-carboxycyclopropan-1-yl)-3-((4-carboxy)phenyl)propanoic acid]",(39%)
3,"NC(C(=O)O)(C1Cc2ccccc2C1)C1CC1C(=O)O (stereo not drawn) [Example 43, 2SR- and 2RS-2-amino-2-(1SR,2SR-2-carboxycyclopropan-1-yl)-2-(indan-2-yl)ethanoic acid]",(32%)
4,"NC(CCC1CCNCC1)(C(=O)O)C1CC1C(=O)O (stereo not drawn) [Example 45, 2SR- and 2RS-2-amino-2-(1SR,2SR-2-carboxycyclopropan-1-yl)-2-(piperidin-4-yl)butanoic acid]",(42%)
5,"N[C@@](CC(c1ccccc1)c1ccccc1)(C(=O)O)[C@@H]1C[C@H]1C(=O)O [Example 65, 2R 2-amino-2-(1R,2R-2-carboxycyclopropan-1-yl)-4,4-diphenylbutanoic acid]",(45%)
6,"N[C@](CC(c1ccccc1)c1ccccc1)(C(=O)O)[C@@H]1C[C@H]1C(=O)O [Example 66, 2S-2-amino-2-(1R,2R-2-carboxycyclopropan-1-yl)-4,4-diphenylbutanoic acid]",(36%)

# Same assay, conditions: crude membranes of rat forebrain; 10 µM compound; 10 µM
row,Compound,ACPD-Sensitive [^3H]Glutamate Binding % Displacement at 10 µM
1,"Cc1cccc(CCC(N)(C(=O)O)C2CC2C(=O)O)c1 [Example 67, 2R-2-amino-2-(1S,2S-2-carboxycyclopropan-1-yl)-4-(3-methylphenyl)butanoic acid]",(22%)^b

# Same assay, conditions: crude membranes of rat forebrain; inhibition of [3H]glutamate binding
row,IC50 [nM],Compound
1,9,"NC(Cc1cccc2c1Oc1ccccc1C2)(C(=O)O)[C@H]1C[C@@H]1C(=O)O (mixture of isomers) [Example 35, 2SR- and 2RS-2-amino-2-(1SR,2SR-2-carboxycyclopropan-1-yl)-3-(dibenzopyran-4-yl)propanoic acid]"
2,320,"NC(CCc1ccccc1)(C(=O)O)C1CC1C(=O)O (stereo not drawn) [Example 2, 2SR- and 2RS-2-amino-2-(1SR,2SR-2-carboxycyclopropan-1-yl)-4-phenylbutanoic acid]"
3,630,"NC(CCCc1ccccc1)(C(=O)O)C1CC1C(=O)O (stereo not drawn) [Example 3, 2SR- and 2RS-2-amino-2-(1SR,2SR-2-carboxycyclopropan-1-yl)-5-phenylpentanoic acid]"
4,2300,"NC(CCCCc1ccccc1)(C(=O)O)C1CC1C(=O)O (stereo not drawn) [Example 4, 2SR- and 2RS-2-amino-2-(1SR,2SR-2-carboxycyclopropan-1-yl)-6-phenylhexanoic acid]"
5,76,"NC(CC(c1ccccc1)c1ccccc1)(C(=O)O)C1CC1C(=O)O (stereo not drawn) [Example 5, 2SR- and 2RS-2-amino-2-(1SR,2SR-2-carboxycyclopropan-1-yl)-4,4-diphenylbutanoic acid]"
6,7100,"NC(CCC(c1ccccc1)c1ccccc1)(C(=O)O)C1CC1C(=O)O (stereo not drawn) [Example 6, 2SR- and 2RS-2-amino-2-(1SR,2SR-2-carboxycyclopropan-1-yl)-5,5-diphenylpentanoic acid]"
7,7000,"NC(CCCC(c1ccccc1)c1ccccc1)(C(=O)O)C1CC1C(=O)O (stereo not drawn) [Example 7, 2SR- and 2RS-2-amino-2-(1SR,2SR-2-carboxycyclopropan-1-yl)-6,6-diphenylhexanoic acid]"
8,6200,"CC(N)(C(=O)O)C1CC1C(=O)O (stereo not drawn) [Example 8, 2SR- and 2RS-2-amino-2-(1SR,2SR-2-carboxycyclopropan-1-yl)propanoic acid, reference compound]"
9,2200,"CCC(N)(C(=O)O)C1CC1C(=O)O (stereo not drawn) [Example 9, 2SR- and 2RS-2-amino-2-(1SR,2SR-2-carboxycyclopropan-1-yl)butanoic acid]"
10,2100,"CCCC(N)(C(=O)O)C1CC1C(=O)O (stereo not drawn) [Example 10, 2SR- and 2RS-2-amino-2-(1SR,2SR-2-carboxycyclopropan-1-yl)pentanoic acid]"
11,1400,"CCCCC(N)(C(=O)O)C1CC1C(=O)O (stereo not drawn) [Example 11, 2SR- and 2RS-2-amino-2-(1SR,2SR-2-carboxycyclopropan-1-yl)hexanoic acid]"
12,1800,"CCCCCC(N)(C(=O)O)C1CC1C(=O)O (stereo not drawn) [Example 12, 2SR- and 2RS-2-amino-2-(1SR,2SR-2-carboxycyclopropan-1-yl)heptanoic acid]"
13,410,"NC(CCc1ccc(Cl)cc1)(C(=O)O)C1CC1C(=O)O (stereo not drawn) [Example 25, 2SR- and 2RS-2-amino-2-(1SR, 2SR-2-carboxycyclopropan-1-yl)-4-(4-chlorophenyl)butanoic acid]"
14,170,"COc1ccccc1CCC(N)(C(=O)O)C1CC1C(=O)O (stereo not drawn) [Example 26, 2SR- and 2RS-2-amino-2-(1SR,2SR-2-carboxycyclopropan-1-yl) -4-(2-methoxyphenyl)butanoic acid]"
15,42,"COc1cccc(CCC(N)(C(=O)O)C2CC2C(=O)O)c1 (stereo not drawn) [Example 27, 2SR- and 2RS-2-amino-2-(1SR,2SR-2-carboxycyclopropan-1-yl) -4-(3-methoxyphenyl)butanoic acid]"
16,1400,"COc1ccc(CCC(N)(C(=O)O)C2CC2C(=O)O)cc1 (stereo not drawn) [Example 28, 2SR- and 2RS-2-amino-2-(1SR,2SR-2-carboxycyclopropan-1-yl)-4-(4-methoxyphenyl)butanoic acid]"
17,100,"NC(CCc1ccccc1O)(C(=O)O)C1CC1C(=O)O (stereo not drawn) [Example 29, 2SR- and 2RS-2-amino-2-(1SR,2SR-2-carboxycyclopropan-1-yl)-4-(2-hydroxyphenyl)butanoic acid]"
18,80,"NC(CCc1cccc(O)c1)(C(=O)O)C1CC1C(=O)O (stereo not drawn) [Example 30, 2SR- and 2RS-2-amino-2-(1SR,2SR-2-carboxycyclopropan-1-yl)-4-(3-hydroxyphenyl)butanoic acid]"

row,IC50 [nM],Compound
1,300,"NC(CCc1ccc(O)cc1)(C(=O)O)C1CC1C(=O)O (stereo not drawn) [Example 31, 2SR- and 2RS-2-amino-2-(1SR,2SR-2-carboxycyclopropan-1-yl)-4-(4-hydroxyphenyl)butanoic acid]"
2,170,"COc1ccc(OC)c(CCC(N)(C(=O)O)C2CC2C(=O)O)c1 (stereo not drawn) [Example 32, 2SR- and 2RS-2-amino-2-(1SR,2SR-2-carboxycyclopropan-1-yl)-4-(2,5-dimethoxyphenyl)butanoic acid]"
3,460,"COc1ccc(CCC(N)(C(=O)O)C2CC2C(=O)O)cc1OC (stereo not drawn) [Example 33, 2SR- and 2RS-2-amino-2-(1SR,2SR-2-carboxycyclopropan-1-yl)-4-(3,4-dimethoxyphenyl)butanoic acid]"
4,120,"CC(CC(N)(C(=O)O)C1CC1C(=O)O)c1ccccc1 (stereo not drawn) [Example 34, 2SR,5SR-, 2SR,5RS-, 2RS,5SR- and 2RS,5RS-2-amino-2-(1SR,2SR-2-carboxycyclopropan-1-yl)-4-methyl-4-phenylbutanoic acid]"
5,200,NC(CCC12CC3CC(CC(C3)C1)C2)(C(=O)O)C1CC1C(=O)O (stereo not drawn) [Example 36]
6,64,"NC(CCc1cccc(C(F)(F)F)c1)(C(=O)O)C1CC1C(=O)O (stereo not drawn) [Example 37, 2SR- and 2RS-2-amino-2-(1SR,2SR-2-carboxycyclopropan-1-yl)-4-(3-(trifluoromethyl)phenyl)butanoic acid]"
7,55,"NC(CCc1cccc(Br)c1)(C(=O)O)C1CC1C(=O)O (stereo not drawn) [Example 38, 2SR- and 2RS-2-amino-2-(1SR,2SR-2-carboxycyclopropan-1-yl)-4-(3-bromophenyl)butanoic acid]"
8,11200,"NC(COc1ccccc1)(C(=O)O)C1CC1C(=O)O (stereo not drawn) [Example 39, 2SR- and 2RS-2-amino-2-(1SR,2SR-2-carboxycyclopropan-1-yl)-3-phenoxypropanoic acid]"
9,29500,"NC(CC1CCC1)(C(=O)O)C1CC1C(=O)O (stereo not drawn) [Example 40, 2SR- and 2RS-2-amino-2-(1SR,2SR-2-carboxycyclopropan-1-yl)-3-cyclobutylpropanoic acid]"
10,1400,"NC(CC1CCCC1)(C(=O)O)C1CC1C(=O)O (stereo not drawn) [Example 41, 2SR- and 2RS-2-amino-2-(1SR,2SR-2-carboxycyclopropan-1-yl)-3-cyclopentylpropanoic acid]"
11,380,"NC(CCC1CCCCC1)(C(=O)O)C1CC1C(=O)O (stereo not drawn) [Example 44, 2SR- and 2RS-2-amino-2-(1SR,2SR-2-carboxycyclopropan-1-yl)-4-(cyclohexyl)butanoic acid]"
12,77,"NC(CC(c1ccc(Cl)cc1)c1ccc(Cl)cc1)(C(=O)O)C1CC1C(=O)O (stereo not drawn) [Example 46, 2SR- and 2RS-2-amino-2-(1SR,2SR-2-carboxycyclopropan-1-yl)-4,4-di(4,4'-dichloro)phenylbutanoic acid]"
13,220,"NC(CCc1ccc(Cl)cc1Cl)(C(=O)O)C1CC1C(=O)O (stereo not drawn) [Example 47, 2SR- and 2RS-2-amino-2-(1SR,2SR-2-carboxycyclopropan-1-yl)-4-(2,4-dichlorophenyl)butanoic acid]"
14,38,"NC(CCc1ccc(Cl)c(Cl)c1)(C(=O)O)C1CC1C(=O)O (stereo not drawn) [Example 48, 2SR- and 2RS-2-amino-2-(1SR,2SR-2-carboxycyclopropan-1-yl)-4-(3,4-dichlorophenyl)butanoic acid]"
15,2000,"N[C@@](CC(c1ccccc1)c1ccccc1)(C(=O)O)[C@H]1C[C@@H]1C(=O)O [Example 63, 2R 2-amino-2-(1S,2S-2-carboxycyclopropan-1-yl)-4,4-diphenylbutanoic acid]"
16,35 ± 5,"N[C@](CC(c1ccccc1)c1ccccc1)(C(=O)O)[C@H]1C[C@@H]1C(=O)O [Example 64, 2S-2-amino-2-(1S,2S-2-carboxycyclopropan-1-yl)-4,4-diphenylbutanoic acid]"
17,12 ± 3,"Cc1cccc(CCC(N)(C(=O)O)C2CC2C(=O)O)c1 [Example 68, 2S-2-amino-2-(1S,2S-2-carboxycyclopropan-1-yl)-4-(3-methylphenyl)butanoic acid]"
